Measured values published in patent publication US20040002482A1, “Androgen pharmaceutical composition and method for treating depression” (priority 2000, published 2004).
Where two headings read alike, the source gives them in different places.

Legend:
[1] = test system: depression; conditions: cited from earlier work
[2] = test system: major depressive disorder; experiment: Eight-week randomized placebo-controlled depression trial of testosterone gel: HAM-D, CGI, BDI; assay type: in vivo, treatment-refractory depressed men
Protocol: Men age 30-65 years, presently taking an adequate dose of antidepressant medication (as defined by the manufacturer's published product information) for at least the last four weeks, but still complaining of depressive symptoms sufficient to meet DSM-IV criteria for current major depressive disorder. Subjects were initially screened. […] Subjects were then administered the depression module the Structured Clinical Interview for DSM-IV (SCID) to confirm the diagnosis of current major depressive disorder. Subjects were next administered the American Urological Association (AUA) Symptom Index for benign prostatic hyperplasia (B PH), subjects scoring higher than 14 on this index were excluded. Blood was then collected for total testosterone and PSA levels.
(§1) Next, the subjects were administered: 1) basic demographic questions; 2) the remainder of the SCID; 3) questions regarding history of previous antidepressant drug treatment; 4) the HAM-D; 5) the BDI; 6) the Clinical Global Impression Scale (CGI); 7) medical history questions; 8) physical examination, including vital signs, height, weight, and digital rectal examination of the prostate; 9) laboratory tests for standard chemistries, hematology, urinalysis, and HIV serology; 10) electrocardiogram (EKG); and 11) determination of body fat with calipers, together with calculation of fat-free mass index (FFMI), a measure of muscularity previously developed in our laboratory.
Qualifying subjects were then started on a one-week single-blind placebo washout with placebo gel. All subjects were asked to continue taking their existing antidepressant medications, together with any other medications that they were prescribed, at their present dose throughout the study.
Baseline (Week 0): Subjects were assessed for scores on the HAM-D, BDI, and CGI-Severity of Illness; adverse events; and vital signs. Results from the laboratory tests drawn at screen and from EKG readings were also reviewed. […] Drug and placebo were supplied in identical-appearing packets that contained either 2.5 g of AndroGel or a placebo gel.
Week 1: Subjects were assessed for scores on the HAM-D, BDI, and CGI (both Severity of Illness and Improvement as compared to Baseline); adverse events; and vital signs. Subjects provided blood for a total testosterone level, drawn at least four hours after the morning application of the gel.
(§2) Weeks 2, 4, 6, and 8: Subjects were assessed at weeks 2, 4,6 and 8 for HAM-D, BDI, CGI, adverse events, and vital signs. Week 8, subjects received an additional determination of PSA and measurement of weight and body fat. The blind was then broken and the correct identity of treatment assignment determined.
Statistical Analysis: Baseline characteristics of each group were compared using Fisher's exact test for categorical variables and the […] for continuous variables. Two populations of patients were defined: (1) an intent-to-treat group of patients with at least one available efficacy measure, and (2) a completers group, defined as patients who completed the 8-week treatment period.
The primary protocol-defined analysis of efficacy was a repeated measures random regression analysis comparing the rate of change of scores on the HAM-D, BDI, and CGI-severity during the treatment period between groups, using methods described by Diggle et al. and Gibbons et al. A model was used for the mean of the outcome variable that included terms for treatment, time, and treatment-by-time interaction. Time as a continuous variable was modeled, with weeks ranging from 0 (Baseline) to 8 (after randomization). The measure of effect was the treatment-by-time interaction (or the difference in the rate of change per unit of time, or the difference in slope with respect to time) of the efficacy measure. […]

[3] = test system: body fat and muscle mass; experiment: Depression trial: percent body fat and fat-free mass index (FFMI); assay type: in vivo, treatment-refractory depressed men; conditions: study completers; mean (SD); not significant vs placebo
Protocol: as §1, §2
For laboratory measures, including body fat and FFMI, the mean difference between endpoint and baseline measures were used, and then compared the treatment groups using the t-test. The correlation coefficients were calculated by using rank-transformed data (Spearman rank correlation). All statistical tests were two-sided with alpha=0.05.

[4] = test system: body weight; conditions: patch delivering 150 ug/day; 12 weeks; cited from earlier work
[5] = test system: impaired sexual function; conditions: cited from earlier work; for serum free testosterone concentration: mean ± SD
[6] = cited from earlier work
[7] = 10 grams of 1% gel daily added to existing antidepressant, 8 weeks
[8] = Completers, Week 8 as endpoint, N = 10
[9] = Intent to Treat, last observation carried forward, N = 11

CCCCCCC(=O)O[C@H]1CC[C@H]2[C@@H]3CCC4=CC(=O)CC[C@]4(C)[C@H]3CC[C@]12C [testosterone enanthate]
mean HAM-D score ([1]; eight weeks, 400 mg every two weeks i.m. with SSRI, 19.2 at baseline, five men): 4.0 | subjects responding (50% or greater reduction in HAM-D) ([1]; randomized placebo-controlled trial, six weeks): About 40% | HAM-D or BDI difference vs placebo ([1]; randomized placebo-controlled trial, six weeks, testosterone alone): no significant difference between testosterone and placebo

C[C@]12CC[C@H]3[C@@H](CCC4=CC(=O)CC[C@@]43C)[C@@H]1CC[C@@H]2O [testosterone]
CGI-severity scores compared with placebo [2, 7]: significantly greater rates of decrease | HAM-D scores compared with placebo [2, 7]: significantly greater rate of decrease | BDI, Total Score: mean change from baseline to endpoint [2, 8]: −6.8 | CGI-Improvement (mean) [2, 8]: 2.9 | CGI-Severity: mean change from baseline to endpoint [2, 8]: −1.2 | HAM-D, Affective Subscale: mean change from baseline to endpoint [2, 8]: −2.7 | HAM-D, Total score: mean change from baseline to endpoint [2, 8]: −8.8 | HAM-D, Vegetative Subscale: mean change from baseline to endpoint [2, 8]: −3.5 | BDI, Total Score: mean change from baseline to endpoint [2, 9]: −5.5 | CGI-Improvement (mean) [2, 9]: 3.09 | CGI-Severity: mean change from baseline to endpoint [2, 9]: −0.9 | HAM-D, Affective Subscale: mean change from baseline to endpoint [2, 9]: −2.1 | HAM-D, Total score: mean change from baseline to endpoint [2, 9]: −7.4 | HAM-D, Vegetative Subscale: mean change from baseline to endpoint [2, 9]: −3.2 | change in muscle mass as expressed by FFMI [3]: 1.1 (0.9) kg/meter^2 | change in percent body fat [3]: −2.8 (1.7) % | increase in body weight [4]: 4% | serum free testosterone concentration ([5]; 160 μg per day (so in the source) transdermally): 3.9 ± 2.4 pg/mL | serum free testosterone concentration ([5]; 300 μg per day transdermally): 4.9 ± 4.8 pg/mL | percentages of women with sexual fantasies, masturbation or intercourse at least once a week, increase from base line ([5]; 300 μg per day): two to three times | bound to protein in the blood ([6]; in vivo): 98% | half-life ([6]; reported in the literature): 10 to 100 min
